From patent US20060034925A1, “Tumor targeting drug-loaded particles” (priority 2004, published 2006)

How the values were obtained:
[1] = test system: Hs766T; assay: cytotoxicity of paclitaxel, MTT assay; assay type: cell-based; conditions: Homo sapiens, read-out: concentration required to produce 50% cytotoxicity (IC50), 96 hour treatment, dissolved in water
Procedure: (§1) Drug effect was measured using the microtetrazolium dye reduction (MTT) assay.

[2] = test system: PANC1; assay: cytotoxicity of paclitaxel, MTT assay; assay type: cell-based; conditions: Homo sapiens, PANC-1, read-out: concentration required to produce 50% cytotoxicity (IC50), 96 hour treatment, dissolved in water
Procedure: as §1

[3] = test system: MIA-PaCa; assay: cytotoxicity of paclitaxel, MTT assay; assay type: cell-based; conditions: Homo sapiens, MIA PaCa-2, read-out: concentration required to produce 50% cytotoxicity (IC50), 96 hour treatment, dissolved in water
Procedure: as §1

[4] = test system: Human RT4 bladder transitional bladder cancer cells; assay: cytotoxicity in RT4 cells, sulforhodamine B assay; assay type: cell-based
[5] = test system: multiple human tumor cells; conditions: treatment for 3 hours; cited from earlier work
[6] = test system: peritoneal cancer; conditions: intraperitoneal administration in patients; cited from earlier work
[7] = retention of PLGA microparticles in peritoneal cavity; assay type: in vivo, mice; conditions: intraperitoneal administration; at 24 hours
Excerpt: Localization and disposition of PLGA microparticles within the peritoneal cavity after intraperitoneal administration was studied using rhodamine-loaded fluorescence microparticles. The disposition was compared with that of rhodamine in solution.

CC(=O)O[C@H]1C(=O)[C@@]2(C)[C@H]([C@H](OC(=O)c3ccccc3)[C@]3(O)C[C@H](OC(=O)[C@H](O)[C@@H](NC(=O)c4ccccc4)c4ccccc4)C(C)=C1C3(C)C)[C@]1(OC(C)=O)CO[C@@H]1C[C@@H]2O [paclitaxel]
IC50 [1]: 0.7 nM | IC50 [2]: 1.5 nM | IC50 [3]: 0.7 nM | IC50 ([4]; RT-4, 48 h, RT4, 48 hour treatment, immediate effect): 11 ± 0.4 nM | IC50 ([4]; RT-4, 96 h, RT4, 96 hour treatment, immediate effect): 4 ± 0.4 nM | IC50 ([4]; RT-4, RT4, 15 minute treatment, delayed effect measured at 96 hours): 157 ± 6.6 nM | IC50 ([4]; RT-4, RT4, 2 hour treatment, delayed effect measured at 96 hours): 33 ± 4.8 nM | concentration sufficient to induce apoptosis [5]: 200 nM

N.N.[Cl][Pt][Cl] [cisplatin]
extension of survival time [6]: about 20%

CCN(CC)c1ccc2c(-c3ccccc3C(=O)O)c3ccc(=[N+](CC)CC)cc-3oc2c1 [rhodamine in solution, rhodamine]
localization in the peritoneal cavity (fluorescence) [7]: could no longer be observed in the peritoneal cavity
